Experiment [1] has as its target T1, HsCIpP (Homo sapiens, UniProt Q16740, P57S).
T1 construct: 2x(His6-thrombin)-SUMO (N, cleaved yes); made in house; host or cells: E. coli (SG1146 stated for HsClpP; 'a similar protocol' for HsClpX)
Kind of experiment: Peptidase activity assay (Ac-WLA-AMC cleavage) with ADEP. To be noted: 6 μM HsCIpP, 100 μM Ac-WLA-AMC. The class given is biochemical. As for the experimental part:
The peptidase activity of purified, untagged HsCIpP was assessed by monitoring the degradation of peptidyl substrates labelled with a C-terminal 7-amido-4-methylcoumarin (AMC) fluorophore. […] To identify a suitable peptidyl substrate, commercially available AMC-labelled peptides were purchased and tested for degradation by HsCIpP. These include N-acetyl-Trp-Leu-Ala-AMC (Ac-WLA-AMC) (R&D Systems) that was also previously used by Csizmadia et (Csizmadia et al., 2016), benzyloxycarbonyl-Arg-Arg-AMC (Z-RR-AMC) (Sigma-Aldrich), N-acetyl-Leu-Glu-His-Asp-AMC […] (Sigma-Aldrich), N-acetyl-Val-Glu-Thr-Asp-AMC (Ac-VETD-AMC) (Sigma-Aldrich), and benzyloxycarbonyl-Leu-Leu-Leu-AMC (Z-LLL-AMC) (Sigma-Aldrich). Suc-LY-AMC (MP Biomedicals) was also tested as a negative control. All stock solutions of the AMC-labelled peptides were prepared by dissolving the lyophilized peptides in DMSO at 90 mM or a lower concentration recommended by the manufacturer. […] Degradation of the peptidyl substrates and subsequent release of the free AMC moiety was monitored by fluorescence with λex=360 nm and λem=440 nm using the EnSpire 2300 Multilabel Reader (Perkin-Elmer) set to perform a reading every 30 s with 20 flashes. A total of 240 readings were collected for each of three independent replicates prepared for each peptidyl substrate. […]
Initial degradation rates data were analyzed using the Hill model. […]

For experiment [2], the system named is HEK293 T-REx WT cells. As to the kind of experiment: Western blots for HsCIpX and apoptotic protein markers. The class given is cell-based, human. As for the experimental part:
Cells were harvested by the standard trypsinization protocol and counted with a hemocytometer. Cell lysates were prepared by first re-suspending the cells in PBS at 5×10^6 cells/mL, followed by sonication. Proteins in the lysates were analyzed by Western blotting using Immobilin-P PVDF membranes (EMD Millipore). Blots were imaged and analyzed with the ChemiDoc XRS+ System (BioRad). Quantification of HsCIpP expression was performed by densitometry using the Quantity One 1D Analysis Software (BioRad). HsCIpP expression levels were corrected for sample loading errors and normalized to the expression level in HEK293 T-REx WT. Primary antibodies for HsCIpP, HsCIpX and GAPDH were purchased from Abcam. Primary antibodies for Caspase-8, Caspase-9 and PUMA were purchased from Cell Signaling Technologies. The primary antibody for Caspase-3 was purchased from R&D Systems. Primary antibodies for Mcl-1 and Bcl-2 were purchased from EMD Millipore. The primary antibody for the FLAG-tag was purchased from Sigma-Aldrich. HRP-conjugated goat anti-rabbit IgG (for HsCIpX, Caspase-8, Caspase-9 and PUMA) and HRP-conjugated goat anti-mouse IgG (for HsCIpP, Mcl-1, Bcl-2, GAPDH and FLAG-tag) were purchased from BioRad. HRP-conjugated rabbit anti-goat IgG (for Caspase-3) was purchased from Sigma-Aldrich.

For experiment [3], the system named is U2OS cells. As to the kind of experiment: Cytotoxicity, SRB staining.
Method: To assess the cytotoxicity of ADEP analogs, cells were seeded at 1×10^3 or 2×10^3 cells in 50 μL per well on sterile 96-well flat-bottom tissue culture plates (VWR). Growth media without any cells was included as a control. Cells were grown for at least 24 hours to allow proper adherence to the growth surface. Afterwards, ADEP analogs were serially diluted and introduced to the tissue cultures via fresh growth media at 50 μL per well. Inclusion of activators/DMSO brought the final DMSO concentration of the growth media up to a maximum of 0.5% (v:v). […] A total of four independent replicates were prepared for each cell line and for each growth condition used. Cells were grown in the presence of ADEP/DMSO for 72 hours.
To assess cell survival, live adherent cells were fixed with 10% (w:v) trichloroacetic acid (TCA) at 4° C. for 1-2 hours. The tissue culture plates were then rinsed with water to remove dead cells and cell debris and air-dried overnight. […] Absorbance at λ=510 nm (A510) was then measured using the EnSpire 2300 Multilabel Reader. […]
To determine the IC50 for the ADEP analogs, relative cell viability (RCV) values were calculated by normalizing the A510 readings in ADEP-containing sample to the DMSO-only control. […]

Where a SMILES comes first, the peptide text is derived from it. Bridges are numbered along the chain shown (N, C = ends). [ ]: non-standard residue; d: D form. The star is where a group is joined. Phe(3,5-F2) = N[C@@H](Cc1cc(F)cc(F)c1)C(=O)O; Heptenoyl(2E) = CCCC/C=C/C(=O)*; aThr = C[C@H](O)[C@H](N)C(=O)O; Pip = O=C(O)[C@@H]1CCCCN1

T1 sequence (Q16740 57-277 P57S): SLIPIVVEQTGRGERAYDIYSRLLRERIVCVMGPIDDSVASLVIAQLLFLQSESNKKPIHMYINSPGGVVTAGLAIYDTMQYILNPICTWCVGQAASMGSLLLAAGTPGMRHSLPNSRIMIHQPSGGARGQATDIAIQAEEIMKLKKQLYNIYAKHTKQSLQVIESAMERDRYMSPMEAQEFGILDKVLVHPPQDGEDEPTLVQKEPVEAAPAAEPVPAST

On to `CCCC/C=C/C(=O)N[C@@H](Cc1cc(F)cc(F)c1)C(=O)N[C@@H]1C(=O)N2CCC[C@H]2C(=O)N2CCCC[C@H]2C(=O)N[C@@H](C)C(=O)N2CCC[C@H]2C(=O)O[C@H]1C` [ADEP-41] ({Heptenoyl(2E)}-[Phe(3,5-F2)][aThr]P[Pip]AP; ester 2-C), for which the “Hill coefficient (h), peptidase activity” value in experiment [1] was 1.5. For the same molecule, in experiment [2] (10 μM, 72 hours), the “activation-specific cleavage of Caspase-8” value is recorded as “no activation-specific cleavage was observed”; the “activation-specific cleavage of Caspase-9 and Caspase-3” value is listed as “activation-specific cleavage was detected”; the “level of anti-apoptotic Bcl-2 protein” value was “no change”. The HsCIpX level result in experiment [2] (20 μM 24 hours or 10 μM 72 hours) is “no longer detected”. Also, in experiment [2] (20 μM, 24 hours), the “activation-specific cleavage of Caspase-8, Caspase-9 or Caspase-3” value is given as “no activation-specific cleavage was observed”; the “anti-apoptotic Mcl-1 protein” value is given as “degraded”; the “pro-apoptotic PUMA protein” value was “significantly upregulated”. Moreover, in experiment [3], the “IC50 compared across cell lines” value was “similar”.

Values taken from patent US20210171576A1, “METHODS FOR TREATING CANCER WITH ACYLDEPSIPEPTIDE ANALOGS” (priority 2018, published 2021).
